Experimental data reported in US8916711B2, “Imidazothiazole-chalcone derivatives as potential anticancer agents and process for the preparation thereof” (Council of Scientific and Industrial Research, priority 2009, dated 2014).
Read-outs that look alike come from different tables or passages of the source.

What was measured:
Format in all cases: cell-based
SF-539 = assay: NCI in vitro cytotoxicity (SRB, 48 h), CNS panel; settings: Homo sapiens; SF-539, CNS; 48 h exposure
CAKI-1 = assay: NCI in vitro cytotoxicity (SRB, 48 h), Renal panel; settings: Homo sapiens; for GI50: CAKI-1, Renal, 48 h exposure
TK-10 = assay: NCI in vitro cytotoxicity (SRB, 48 h), Renal panel; settings: Homo sapiens; TK-10, Renal; 48 h exposure
SN12C = assay: NCI in vitro cytotoxicity (SRB, 48 h), Renal panel; settings: Homo sapiens, 48 h exposure
UO-31 = assay: NCI in vitro cytotoxicity (SRB, 48 h), Renal panel; settings: Homo sapiens; UO-31, Renal; 48 h exposure
MALME-3M = assay: NCI in vitro cytotoxicity (SRB, 48 h), Melanoma panel; settings: Homo sapiens, 48 h exposure
[1] = test system: Prostate cancer cell lines; assay: NCI in vitro cytotoxicity, whole panel; settings: Homo sapiens; for LC50: read-out: Log10 LC50 (converted)
RXF 393 = assay: NCI in vitro cytotoxicity (SRB, 48 h), Renal panel; settings: Homo sapiens; RXF 393, Renal; 48 h exposure
NCI-H226 = assay: NCI in vitro cytotoxicity (SRB, 48 h), Non-small cell lung panel; settings: Homo sapiens, 48 h exposure
Leukemia cell lines = assay: NCI in vitro cytotoxicity, whole panel; settings: Homo sapiens; for CC50: read-out: Log10 LC50 (converted)
MOLT-4 = assay: NCI in vitro cytotoxicity (SRB, 48 h), Leukemia panel; settings: Homo sapiens; MOLT-4, Leukemia; 48 h exposure
[2] = test system: sixty human tumour cell lines; assay: NCI in vitro cytotoxicity, all panels; settings: for CC50: read-out: Log10 LC50 mean graph midpoint (MG_MID) (converted)
Melanoma cell lines = assay: NCI in vitro cytotoxicity, whole panel; settings: Homo sapiens; for CC50: read-out: Log10 LC50 (converted)
Renal cancer cell lines = assay: NCI in vitro cytotoxicity, whole panel; settings: Homo sapiens; for CC50: read-out: Log10 LC50 (converted)
NCI-H522 = assay: NCI in vitro cytotoxicity (SRB, 48 h), Non-small cell lung panel; settings: Homo sapiens, 48 h exposure
HOP-92 = assay: as above; settings: Homo sapiens
EKVX = assay: as above; settings: Homo sapiens, 48 h exposure
BT-549 = assay: NCI in vitro cytotoxicity (SRB, 48 h), Breast panel; settings: Homo sapiens; BT-549, Breast; 48 h exposure
KM12 = assay: NCI in vitro cytotoxicity (SRB, 48 h), Colon panel; settings: Homo sapiens, 48 h exposure
HCT-15 = assay: NCI in vitro cytotoxicity (SRB, 48 h), Colon panel; settings: Homo sapiens; HCT-15, Colon; 48 h exposure
NCI-H322M = assay: NCI in vitro cytotoxicity (SRB, 48 h), Non-small cell lung panel; settings: Homo sapiens, 48 h exposure
786-0 = assay: NCI in vitro cytotoxicity (SRB, 48 h), Renal panel; settings: Homo sapiens; 786-0, Renal; 48 h exposure
SK-MEL-5 = assay: NCI in vitro cytotoxicity (SRB, 48 h), Melanoma panel; settings: Homo sapiens; SK-MEL-5, Melanoma; 48 h exposure
[3] = test system: Non-small-cell lung cancer cell lines; assay: NCI in vitro cytotoxicity, whole panel; settings: Homo sapiens; for CC50: read-out: Log10 LC50 (converted)
U251 = assay: NCI in vitro cytotoxicity (SRB, 48 h), CNS panel; settings: Homo sapiens, U-251, 48 h exposure
HL-60(TB) = assay: NCI in vitro cytotoxicity (SRB, 48 h), Leukemia panel; settings: Homo sapiens, 48 h exposure
Protocol: (§1) The imidazothiazole-chalcone hybrids 7a, 7e, 7f, 8f and 19e have been tested against sixty human tumour cell lines derived from nine cancer types (leukemia, non-small cell lung cancer, colon cancer, CNS cancer, melanoma, ovarian cancer, renal cancer, prostate cancer and breast cancer) as per NCI protocol. For each compound, dose response curves for individual cell lines have been measured at a minimum of five concentrations at 10 fold dilutions. A protocol of 48 h continuous drug exposure has been used, and a sulforhodamine B (SRB) protein assay was used to estimate cell viability or growth. The concentration for 50% cell growth inhibition (GI50), total cell growth inhibition (TGI, 0% growth) and 50% cell death (LC50, […]) compared with the control has been calculated (Table-1).

SR = assay: as above; settings: Homo sapiens
Protocol: as §1

SK-OV-3 = assay: NCI in vitro cytotoxicity (SRB, 48 h), Ovarian panel; settings: Homo sapiens; SK-OV-3, Ovarian; 48 h exposure
Breast cancer cell lines = assay: NCI in vitro cytotoxicity, whole panel; settings: Homo sapiens; for GI50 / CC50: Breast, average of six to eight cell lines; for GI50: read-out: Log10 GI50 (converted); for CC50: read-out: Log10 LC50 (converted); for IC50: exposure period of at least 48 hrs, read-out: IC50, range over breast cell lines
K-562 = assay: NCI in vitro cytotoxicity (SRB, 48 h), Leukemia panel; settings: Homo sapiens, K562; K-562, Leukemia; 48 h exposure
NCI/ADR-RES = assay: NCI in vitro cytotoxicity (SRB, 48 h), Ovarian panel; settings: Homo sapiens, 48 h exposure
OVCAR-5 = assay: as above; settings: Homo sapiens
MDA-MB-468 = assay: NCI in vitro cytotoxicity (SRB, 48 h), Breast panel; settings: Homo sapiens; MDA-MB-468, Breast; 48 h exposure
[4] = Prostate cell, exposure period of at least 48 hrs, read-out: GI50, range over prostate cell lines
[5] = Prostate, average of the panel's cell lines, read-out: Log10 GI50 (converted)
[6] = Prostate, average of the panel's cell lines
[7] = Leukemia, average of six to eight cell lines, read-out: Log10 GI50 (converted)
[8] = Leukemia, average of six to eight cell lines
[9] = exposure period of at least 48 hrs, read-out: GI50, range over leukemia cell lines
[10] = Homo sapiens, sixty cell lines, nine panels, read-out: GI50 against sixty cell lines in nine cell panels
[11] = human tumour cell lines, read-out: Log10 GI50 mean graph midpoint (MG_MID) (converted)
[12] = Melanoma, average of six to eight cell lines, read-out: Log10 GI50 (converted)
[13] = Melanoma, average of six to eight cell lines
[14] = exposure period of at least 48 hrs, read-out: GI50, range over melanoma cell lines
[15] = Renal, average of six to eight cell lines, read-out: Log10 GI50 (converted)
[16] = Renal, average of six to eight cell lines
[17] = exposure period of at least 48 hrs, read-out: GI50, range over renal cell lines
[18] = HOP-92, Non-small cell lung, 48 h exposure
[19] = Non-small-cell lung, average of six to eight cell lines, read-out: Log10 GI50 (converted)
[20] = Non-small-cell lung, average of six to eight cell lines
[21] = exposure period of at least 48 hrs, read-out: GI50, range over lung cell lines

COc1cc(C(=O)/C=C/c2c(C(F)(F)F)nc3sccn23)cc(OC)c1OC [Compound 7f, (E)-3-(6-(trifluoromethyl)imidazo[2,1-b]thiazol-5-yl)-1-(3,4,5-trimethoxyphenyl)prop-2-en-1-one]
GI50 (SF-539): 1550 nM | GI50 (CAKI-1): 1760 nM | GI50 (TK-10): 2300 nM | GI50 (SN12C): 1560 nM | GI50 (UO-31): 1870 nM | GI50 (MALME-3M): 1590 nM | GI50 [1, 4]: 1410 to 2660 nM | GI50 [1, 5]: 1950 nM | LC50 [1, 6]: 20000 nM | GI50 (RXF 393): 2020 nM | GI50 (NCI-H226): 2170 nM | GI50 (Leukemia cell lines; [7]): 1290 nM | CC50 (Leukemia cell lines; [8]): ≥ 100000 nM | GI50 (Leukemia cell lines; [9]): 540 to 1920 nM | GI50 (MOLT-4): 1920 nM | GI50 [2, 10]: < 9000 nM | Log10 TGI mean graph midpoint (MG_MID) ([2]; human tumour cell lines): −5.28 | in vitro cytotoxicity, in words ([2]; human tumour cell lines): significant cytotoxicity | GI50 [2, 11]: 1910 nM | CC50 ([2]; human tumour cell lines): 19100 nM | GI50 (Melanoma cell lines; [12]): 1700 nM | CC50 (Melanoma cell lines; [13]): 9330 nM | GI50 (Melanoma cell lines; [14]): 1360 to 2260 nM | GI50 (Renal cancer cell lines; [15]): 1860 nM | CC50 (Renal cancer cell lines; [16]): 10500 nM | GI50 (Renal cancer cell lines; [17]): 1560 to 2300 nM | GI50 (NCI-H522): 2030 nM | GI50 (HOP-92; [18]): 7000 nM | GI50 (EKVX): 2720 nM | GI50 (BT-549): 2260 nM | GI50 (KM12): 1470 nM | GI50 (HCT-15): 1800 nM | GI50 (NCI-H322M): 1960 nM | GI50 (786-0): 1760 nM | GI50 (SK-MEL-5): 1590 nM | GI50 [3, 19]: 2450 nM | CC50 [3, 20]: 26900 nM | GI50 [3, 21]: 1650 to 7000 nM | GI50 (U251): 1380 nM | GI50 (HL-60(TB)): 1830 nM | GI50 (SR): 540 nM | GI50 (SR; 48 h exposure): 540 nM | GI50 (SK-OV-3): 2870 nM | GI50 (Breast cancer cell lines): 2090 nM | CC50 (Breast cancer cell lines): 24500 nM | IC50 (Breast cancer cell lines): 1250 to 2920 nM | GI50 (K-562): 1740 nM

COc1ccc(-c2nc3sccn3c2/C=C/C(=O)c2cc(OC)c(OC)c(OC)c2)cc1 [Compound 7a, (E)-3-(6-(4-methoxyphenyl)imidazo[2,1-b]thiazol-5-yl)-1-(3,4,5-trimethoxyphenyl) prop-2-en-1-one]
GI50 (NCI/ADR-RES): 2570 nM | GI50 (SF-539): 1660 nM | GI50 (CAKI-1): 1200 nM | IC50 (CAKI-1; CAKI-1, Table 4, read-out: Comparative efficacy): 1200 nM | GI50 (TK-10): 5040 nM | GI50 (SN12C): 2880 nM | GI50 (UO-31): 1120 nM | GI50 (MALME-3M): 5420 nM | GI50 [1, 4]: 2620 to 3100 nM | GI50 [1, 5]: 2880 nM | LC50 [1, 6]: ≥ 100000 nM | GI50 (OVCAR-5; OVCAR-5, Ovarian, 48 h exposure): 1990 nM | GI50 (OVCAR-5; OVCAR-5, ovarian): 1990 nM | GI50 (NCI-H226): 2580 nM | GI50 (Leukemia cell lines; [7]): 2240 nM | CC50 (Leukemia cell lines; [8]): ≥ 100000 nM | GI50 (Leukemia cell lines; [9]): 1660 to 3080 nM | GI50 (MOLT-4): 2520 nM | GI50 [2, 10]: < 9000 nM | Log10 TGI mean graph midpoint (MG_MID) ([2]; human tumour cell lines): −4.76 | in vitro cytotoxicity, in words ([2]; human tumour cell lines): significant cytotoxicity | GI50 [2, 11]: 2340 nM | CC50 ([2]; human tumour cell lines): 87100 nM | GI50 (Melanoma cell lines; [12]): 2630 nM | CC50 (Melanoma cell lines; [13]): 70800 nM | GI50 (Melanoma cell lines; [14]): 1300 to 5420 nM | GI50 (Renal cancer cell lines; [15]): 2510 nM | CC50 (Renal cancer cell lines; [16]): ≥ 100000 nM | GI50 (Renal cancer cell lines; [17]): 1120 to 5040 nM | GI50 (NCI-H522): 1970 nM | GI50 (HOP-92; [18]): 240 nM | GI50 (HOP-92; HOP-92, non-small cell lung): 240 nM | IC50 (HOP-92; HOP-92, Table 4, read-out: Comparative efficacy): 240 nM | GI50 (EKVX): 3120 nM | GI50 (BT-549): 3460 nM | GI50 (KM12): 2650 nM | GI50 (HCT-15): 3450 nM | GI50 (NCI-H322M): 3700 nM | GI50 (786-0): 2580 nM | GI50 (SK-MEL-5): 1300 nM | GI50 [3, 19]: 1950 nM | CC50 [3, 20]: 95500 nM | GI50 [3, 21]: 240 to 3700 nM | GI50 (MDA-MB-468): 2960 nM | GI50 (U251): 3050 nM | GI50 (HL-60(TB)): 1660 nM | GI50 (SR; 48 h exposure): 2330 nM | GI50 (SK-OV-3): 3280 nM | GI50 (Breast cancer cell lines): 2510 nM | CC50 (Breast cancer cell lines): ≥ 100000 nM | IC50 (Breast cancer cell lines): 1900 to 3460 nM | GI50 (K-562): 1720 nM
